From US10183943B2, “Heterocyclic compounds and their use in preventing or treating bacterial infections” (MUTABILIS, priority 2015, dated 2019)

Columns and labels:
[1] = target: T1, OXA-48 (Klebsiella pneumoniae, UniProt Q6XEC0); test: β-lactamase inhibitory activity, determination of IC50 (nitrocefin hydrolysis); assay type: biochemical; details: class (D); nitrocefin 200 μM, 30 min pre-incubation; read-out: IC50 β-lactamase OXA-48
T1 construct: made in house; host or cells: E. coli

[2] = system: K. pneumoniae 6299 (TEM-1, SHV-11, OXA-163); test: MIC of compounds alone, broth microdilution; assay type: cell-based; details: Klebsiella pneumoniae; strain 6299 (K. pneumoniae); read-out: MIC compounds of the invention alone
Summary of the method: (§1)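 Read-out: lowest compound concentration with no growth by visual inspection. CLSI M7-A7 broth microdilution, cation-adjusted Mueller-Hinton broth, inoculum 5×10^5 cfu/mL from log-phase culture, 16-20 h, 35° C, ambient air; compound tested without β-lactam.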

[3] = system: P. aeruginosa CIP107051 (TEM-24); test: MIC of compounds alone, broth microdilution; assay type: cell-based; details: Pseudomonas aeruginosa; strain CIP107051 (P. aeruginosa); read-out: MIC compounds of the invention alone
Summary of the method: as §1

[4] = system: E. coli 190317 (TEM-1, SHV-12, CTX-M-15, OXA-1); test: MIC of compounds alone, broth microdilution; assay type: cell-based; details: Escherichia coli, read-out: MIC compounds of the invention alone
Summary of the method: as §1

[5] = system: K. pneumoniae BAA-1898 (TEM-1, SHV-11, SHV-12, KPC-2); test: MIC of compounds alone, broth microdilution; assay type: cell-based; details: Klebsiella pneumoniae, BAA1898; strain BAA-1898 (K. pneumoniae); read-out: MIC compounds of the invention alone
Summary of the method: as §1

[6] = system: K. pneumoniae UFR39 (CTX-M-15, NDM-1); test: MIC of compounds alone, broth microdilution; assay type: cell-based; details: Klebsiella pneumoniae; strain UFR39 (K. pneumoniae); read-out: MIC compounds of the invention alone
Summary of the method: as §1

[7] = system: E. cloacae P99 (AmpC); test: MIC of compounds alone, broth microdilution; assay type: cell-based; details: Enterobacter cloacae; strain P99 (E. cloacae); read-out: MIC compounds of the invention alone
Summary of the method: as §1

[8] = target: T2, OXA-15 (Pseudomonas aeruginosa, UniProt Q51574); test: biochemical
T2 construct: made in house; host or cells: E. coli
T2 sequence (Q51574 22-275): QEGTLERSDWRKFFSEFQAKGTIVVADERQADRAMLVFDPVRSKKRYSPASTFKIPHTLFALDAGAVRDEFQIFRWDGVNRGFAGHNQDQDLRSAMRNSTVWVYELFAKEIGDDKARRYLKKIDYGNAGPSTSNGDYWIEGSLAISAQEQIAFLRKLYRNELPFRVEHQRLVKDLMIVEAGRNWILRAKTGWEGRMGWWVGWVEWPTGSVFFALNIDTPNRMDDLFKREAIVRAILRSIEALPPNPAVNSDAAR

[9] = target: T3, OXA-1 (Escherichia coli, UniProt P13661); test: β-lactamase inhibitory activity, determination of IC50 (nitrocefin hydrolysis); assay type: biochemical; details: class (D); nitrocefin 200 μM, 30 min pre-incubation; read-out: IC50 β-lactamase OXA-1
T3 construct: made in house; host or cells: E. coli
T3 sequence (P13661 26-276): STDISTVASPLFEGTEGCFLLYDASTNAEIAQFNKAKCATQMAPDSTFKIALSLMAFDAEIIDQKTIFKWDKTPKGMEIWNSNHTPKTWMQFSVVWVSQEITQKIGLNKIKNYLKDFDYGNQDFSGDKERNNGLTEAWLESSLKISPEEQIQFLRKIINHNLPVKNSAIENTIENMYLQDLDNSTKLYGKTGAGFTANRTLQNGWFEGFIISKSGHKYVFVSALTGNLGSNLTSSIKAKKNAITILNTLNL

[10] = target: T4, SHV-1 (Klebsiella pneumoniae, UniProt P0AD64); test: as above; assay type: biochemical
T4 construct: made in house; host or cells: E. coli
T4 sequence (P0AD64 22-286): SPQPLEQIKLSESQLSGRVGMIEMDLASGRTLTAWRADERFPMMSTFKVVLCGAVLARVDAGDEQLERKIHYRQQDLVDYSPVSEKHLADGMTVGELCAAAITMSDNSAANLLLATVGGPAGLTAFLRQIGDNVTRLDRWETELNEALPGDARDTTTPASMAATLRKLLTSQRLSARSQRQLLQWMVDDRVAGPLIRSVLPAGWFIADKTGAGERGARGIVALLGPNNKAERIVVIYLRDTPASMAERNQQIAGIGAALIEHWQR

[11] = target: T5, TEM-1 (Escherichia coli, UniProt P62593); test: as above; assay type: biochemical
T5 construct: made in house; host or cells: E. coli
T5 sequence (P62593 24-286 limits assumed): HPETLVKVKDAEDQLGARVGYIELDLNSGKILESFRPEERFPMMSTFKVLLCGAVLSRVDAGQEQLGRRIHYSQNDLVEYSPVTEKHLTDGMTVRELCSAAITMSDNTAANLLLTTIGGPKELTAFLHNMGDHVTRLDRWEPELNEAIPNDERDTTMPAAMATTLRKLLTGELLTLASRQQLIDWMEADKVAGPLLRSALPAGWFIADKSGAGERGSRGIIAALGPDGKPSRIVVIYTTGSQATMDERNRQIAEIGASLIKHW

[12] = target: T6, KPC-2 (Klebsiella pneumoniae, UniProt Q9F663); test: as above; assay type: biochemical; details: class (A); nitrocefin 200 μM, 30 min pre-incubation; read-out: IC50 β-lactamase KPC-2
T6 construct: made in house; host or cells: E. coli
T6 sequence (Q9F663 25-293 limits assumed): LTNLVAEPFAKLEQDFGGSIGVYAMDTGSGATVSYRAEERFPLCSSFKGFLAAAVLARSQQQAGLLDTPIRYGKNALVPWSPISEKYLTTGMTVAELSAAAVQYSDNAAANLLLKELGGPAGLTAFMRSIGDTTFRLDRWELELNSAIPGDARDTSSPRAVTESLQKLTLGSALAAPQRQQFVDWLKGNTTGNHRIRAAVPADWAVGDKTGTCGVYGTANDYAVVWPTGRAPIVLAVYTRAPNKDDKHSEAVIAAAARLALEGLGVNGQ

[13] = target: AmpC P. aeruginosa (Pseudomonas aeruginosa, UniProt P24735); test: as above
Sequence of AmpC P. aeruginosa (P24735 27-397): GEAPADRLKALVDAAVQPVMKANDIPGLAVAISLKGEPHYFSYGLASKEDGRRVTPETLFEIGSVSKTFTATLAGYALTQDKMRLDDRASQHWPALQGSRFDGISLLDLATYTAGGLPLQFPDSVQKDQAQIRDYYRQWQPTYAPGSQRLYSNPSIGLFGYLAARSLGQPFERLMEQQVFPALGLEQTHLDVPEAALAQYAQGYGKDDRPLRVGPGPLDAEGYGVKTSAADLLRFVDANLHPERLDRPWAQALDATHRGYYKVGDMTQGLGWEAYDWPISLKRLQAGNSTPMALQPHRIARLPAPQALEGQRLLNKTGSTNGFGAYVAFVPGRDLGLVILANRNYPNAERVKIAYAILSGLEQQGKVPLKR

[14] = target: T7, OXA-11 (Pseudomonas aeruginosa, UniProt Q06778); test: as above; assay type: biochemical
T7 construct: made in house; host or cells: E. coli
T7 sequence (Q06778 21-266): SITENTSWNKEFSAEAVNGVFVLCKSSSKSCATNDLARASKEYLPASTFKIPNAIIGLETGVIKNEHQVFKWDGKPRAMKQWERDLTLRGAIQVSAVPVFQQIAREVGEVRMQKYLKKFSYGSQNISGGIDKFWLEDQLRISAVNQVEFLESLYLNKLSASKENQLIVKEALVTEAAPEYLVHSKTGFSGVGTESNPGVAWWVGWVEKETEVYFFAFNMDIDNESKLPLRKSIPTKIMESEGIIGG

[15] = target: AmpC (P99) (Enterobacter cloacae, UniProt P05364); test: as above
Sequence of AmpC (P99) (P05364 21-381): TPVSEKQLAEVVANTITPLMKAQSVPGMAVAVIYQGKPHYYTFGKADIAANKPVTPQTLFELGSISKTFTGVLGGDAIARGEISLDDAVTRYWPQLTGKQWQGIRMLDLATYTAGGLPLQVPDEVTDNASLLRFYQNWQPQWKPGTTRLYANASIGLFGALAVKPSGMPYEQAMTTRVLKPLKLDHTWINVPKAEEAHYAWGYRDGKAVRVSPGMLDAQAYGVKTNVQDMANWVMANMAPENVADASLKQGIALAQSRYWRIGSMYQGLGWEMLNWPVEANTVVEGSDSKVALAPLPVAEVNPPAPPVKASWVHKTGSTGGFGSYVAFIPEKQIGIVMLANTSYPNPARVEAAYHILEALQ

[16] = target: T8, CTX-M-15 (Escherichia coli, UniProt Q9EXV5); test: as above; assay type: biochemical; details: class (A); nitrocefin 200 μM, 30 min pre-incubation; read-out: IC50 β-lactamase CTX-M-15
T8 construct: made in house; host or cells: E. coli
T8 sequence (Q9EXV5 entry or part of it): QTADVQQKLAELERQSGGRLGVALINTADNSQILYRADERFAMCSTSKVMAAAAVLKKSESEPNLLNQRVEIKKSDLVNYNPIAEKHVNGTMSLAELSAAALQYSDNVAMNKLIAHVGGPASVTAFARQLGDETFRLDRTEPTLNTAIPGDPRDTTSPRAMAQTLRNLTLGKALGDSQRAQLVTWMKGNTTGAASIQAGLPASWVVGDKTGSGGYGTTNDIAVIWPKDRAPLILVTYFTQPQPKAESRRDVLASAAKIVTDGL

T1 sequence (Q6XEC0 23-265 limits assumed): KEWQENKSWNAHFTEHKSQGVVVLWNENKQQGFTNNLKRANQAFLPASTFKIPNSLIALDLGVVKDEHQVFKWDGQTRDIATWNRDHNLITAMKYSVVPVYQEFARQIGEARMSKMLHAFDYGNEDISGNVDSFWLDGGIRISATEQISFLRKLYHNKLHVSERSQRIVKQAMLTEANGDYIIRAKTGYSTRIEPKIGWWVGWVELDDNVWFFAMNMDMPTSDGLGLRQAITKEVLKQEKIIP

SMILES | IC50 [1] [nM] | MIC [2] [µg/mL] | MIC [3] [µg/mL] | MIC [4] [µg/mL] | MIC [5] [µg/mL] | MIC [6] [µg/mL] | MIC [7] [µg/mL] | IC50 [8] [nM] | IC50 [9] [nM] | IC50 [10] [nM] | IC50 [11] [nM] | IC50 [12] [nM] | IC50 [13] [nM] | IC50 [14] [nM] | IC50 [15] [nM] | IC50 [16] [nM]
O=C1N2CC(c3nc4cccnc4s3)=CC(C2)N1OS(=O)(=O)[O-].[Na+] (stereo not drawn) [Example 40, Sodium (7-oxo-3-thiazolo[5,4-b]pyridin-2-yl-1,6-diazabicyclo[3.2.1]oct-3-en-6-yl) sulfate] | 2.7 | > 32 | > 32 | > 32 | > 32 | > 32 | > 32 | 77 | 120 | 1.1 | 0.35 | 2.2 | 230 | 61 | 10 | 1.2
O=C1N2CC(c3ccccn3)=CC(C2)N1OS(=O)(=O)[O-].[Na+] (stereo not drawn) [Example 42, Sodium [7-oxo-3-(2-pyridyl)-1,6-diazabicyclo[3.2.1]oct-3-en-6-yl]sulfate] | 31 | > 32 | > 32 | 16 | 32 | 32 | > 32 | 370 | 640 | 2.9 | 2.4 | 8 | 75 | 120 | 25 | 0.89
O=C1N2CC(c3cn[nH]c3)=CC(C2)N1OS(=O)(=O)[O-].[Na+] (stereo not drawn) [Example 43, Sodium [7-oxo-3-(1H-pyrazol-4-yl)-1,6-diazabicyclo[3.2.1]oct-3-en-6-yl] sulfate] | 9.4 | > 32 | > 32 | > 32 | > 32 | > 32 | > 32 | 540 | 1200 | 1.7 | 0.77 | 30 | 440 | 370 | 180 | 2.9
